# Results reported in patent US10538789B2, “Methods for biosynthesis of isoprene” (INVISTA NORTH AMERICA S.A.R.L., priority 2013, dated 2020).
# Legend:
# [1] = molecular target: T1, enoyl-CoA hydratase encoded by phaJ (SEQ ID NO: 16) (Aeromonas caviae, UniProt O32472); experiment: Native enzyme activity assay in the forward (hydration) direction, spectrophotometry at 263 nm; format: biochemical, Aeromonas punctata; conditions: for acceptance as substrate, hydration direction, inferred from reversibility of the enzyme reaction: inferred from the dehydration results and the favoured hydration direction
# T1 construct: His tag (C); made in house; host or cells: E. coli BL21[DE3]
# T1 sequence (O32472 1-134): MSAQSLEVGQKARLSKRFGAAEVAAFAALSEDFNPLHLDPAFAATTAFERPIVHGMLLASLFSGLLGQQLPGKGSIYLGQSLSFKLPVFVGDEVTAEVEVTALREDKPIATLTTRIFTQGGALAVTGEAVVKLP
# Description: (§1) The C-terminal his-tagged phaJ gene (SEQ ID NO: 16) from Aeromonas punctata was cloned into a pE23a expression vector under the T7 promoter. The expression vector was transformed into a BL21[DE3] E. coli host.
# (§2) The resulting recombinant E. coli strain was cultivated in a 1L shake flask culture containing 100 mL Luria Broth media at 30° C., shaking at 200 rpm. The culture was induced using 1 mM IPTG for 2 h.
# (§3) The pellet from each of the induced shake flask cultures was harvested by centrifugation. The pellet was resuspended in 20 mM HEPES (pH=7.2), 1 mM PMSF and 29U benzonase. The resuspended pellet was lysed via sonication. The cell debris was separated from the supernatant via centrifugation and filtered using a 0.2 μm filter.
# (§4) The phaJ enzyme was purified from the supernatant using Ni-affinity chromatography and concentrated to 1.25 mg/mL.
# The native enzyme activity assay in the forward (hydration) direction was undertaken in a buffer composed of 10 mM ammonium acetate (pH=8) and 1 mM of crotonyl-CoA from Sigma-Aldrich at 30° C. The enzyme activity assay reaction was initiated by adding 0.4 μM of purified enoyl-CoA hydratase to the assay buffer containing the substrate. The enzyme encoded by phaJ accepted crotonyl-CoA as substrate as confirmed via spectrophotometry at 263 nm at 30° C.
# [2] = molecular target: T1, enoyl-CoA hydratase encoded by phaJ (SEQ ID NO: 16); experiment: Enzyme activity assay in the reverse (dehydration) direction, LC-MS; format: biochemical; conditions: 1 mM substrate, 5 μM purified enzyme, 10 mM ammonium acetate pH 8, 30° C., 1 h
# Description: as §1, §2, §3, §4
# The native enzyme activity assay in the reverse (dehydration) direction was undertaken in a buffer composed of 10 mM ammonium acetate (pH=8) and 1 mM of racemic 3-hydroxybutanoyl-CoA. The enzyme activity assay reaction was initiated by adding 5 μM of purified enoyl-CoA hydratase to the assay buffer containing the substrate and incubated at 30° C. for 1 h. The enzyme encoded by phaJ accepted 3-hydroxybutanoyl-CoA as substrate as confirmed via LC-MS.
# The non-native enzyme activity assay in the reverse (dehydration) direction was undertaken in a buffer composed of 10 mM ammonium acetate (pH=8) and 1 mM of 3-methyl-3-hydroxypentanoyl-CoA. The enzyme activity assay reaction was initiated by adding 5 μM of purified enoyl-CoA hydratase to the assay buffer containing the substrate and incubated at 30° C. for 1 h. The enzyme encoded by phaJ accepted 3-methyl-3-hydroxypentanoyl-CoA as substrate as confirmed via LC-MS.
# The non-native enzyme activity assay in the reverse (dehydration) direction was undertaken in a buffer composed of 10 mM ammonium acetate (pH=8) and 1 mM of 4-methyl-3-hydroxypentanoyl-CoA. […]
# [3] = molecular target: T2, linalool dehydratase of SEQ ID NO: 13 (CBW30776.1) (Castellaniella defragrans, UniProt E1XUJ2); experiment: Whole cell assay of linalool dehydratase in recombinant E. coli, headspace GC-MS for isoprene; format: cell-based; conditions: 20 mM substrate, 160 mg/mL cells in M9 minimal media, 30° C., 48 h, GC-MS versus empty vector control
# T2 construct: expressed in transfected cells; host or cells: E. coli BL21[DE3], whole cells
# Description: A sequence encoding a C-terminal His-tag encoding the linalool dehydratase of SEQ ID NO: 13 (see FIGS. 9A-9F) was cloned into a pET15 expression vector under control of the T7 promoter such that a C-terminal HIS tagged enzyme could be produced. The expression vector was transformed into a BL21[DE3] E. coli host. The resulting recombinant E. coli strain was cultivated at 30° C. in a 1L shake flask culture containing 100 mL Auto-Induction media and antibiotic selection pressure, shaking at 220 rpm overnight. The pellet from the induced shake flask culture was harvested via centrifugation and used immediately in a whole cell assay.
# The pellet was washed and resuspended in M9 minimal media to 160 mg/mL (wet weight) and dispensed into 10 mL crimped glass vials in triplicate. The substrate 3-methyl-3-buten-2-ol was added to a final concentration of 20 mM and incubated at 30° C. at 220 rpm for 48 h. The headspace of each glass vial was analysed by GC-MS for isoprene and compared to the empty vector control (undertaken in triplicate). The gene product of SEQ ID NO: 13 accepted 3-methyl-3-buten-2-ol as substrate as confirmed via GC-MS (see FIG. 15) and synthesized isoprene as reaction product.
# [4] = tested on: mevalonate diphosphate decarboxylase of SEQ ID NO: 10 (CAR68209.1); experiment: GHMP superfamily enzyme activity assay, headspace GC-MS for isoprene; format: biochemical, Streptococcus pneumoniae; conditions: 10 mM substrate, 30 mM ATP, pH 7.0, 30° C., 24 h, GC-MS versus empty vector control
# Source text: (§5) Each of the sequences encoding a C-terminal His-tagged gene encoding the mevalonate diphosphate decarboxylase of SEQ ID NOs: 8, 9, 10, and 11 respectively (see FIGS. 9A-9F) and the mevalonate 3-kinase of SEQ ID NO: 12 (see FIGS. 9A-9F) was cloned into a PD681-CH expression vector under control of the rhapBAD promoter, such that a C-terminal HIS tagged GHMP superfamily enzyme could be produced. Each expression vector was transformed into a BL21[DE3] E. coli host. The resulting recombinant E. coli strains were cultivated at 37° C. in a 5L shake flask culture containing 1L Luria Broth (LB) media and kanamycin antibiotic selection pressure, with shaking at 90 rpm. At an OD600 between 0.6 to 0.8, the culture was induced with L-rhamnose to a final concentration of 2 g/L. The cultures was induced for 6 h at 37° C. The pellets from the induced shake flask cultures were harvested via centrifugation and stored at −20° C. […]
# (§6) Each enzyme activity assay was performed in an assay buffer composed of 100 mM HEPES (pH=7.0), 100 mM KCl, 30 mM MgCl2, 30 mM ATP, 2 mM DTT and 10 mM of 3-methyl-3-hydroxypent-4-enoate as substrate. […] The headspace of each glass vial was analysed by GC-MS for isoprene and compared to the empty vector control. […]
# [5] = tested on: mevalonate diphosphate decarboxylase of SEQ ID NO: 9 (AHF01884.1); experiment: as above; format: biochemical, Thioalkalimicrobium aerophilum; conditions: 10 mM substrate, 30 mM ATP, pH 7.0, 30° C., 24 h, GC-MS versus empty vector control
# Source text: as §5, §6
# [6] = molecular target: T3, mevalonate diphosphate decarboxylase of SEQ ID NO: 11 (CAA66158.1) (Saccharomyces cerevisiae, UniProt P32377); experiment: as above; format: biochemical; conditions: 10 mM substrate, 30 mM ATP, pH 7.0, 30° C., 24 h, GC-MS versus empty vector control
# T3 construct: His tag (C); made in house; host or cells: E. coli BL21[DE3]
# T3 sequence (P32377 1-396): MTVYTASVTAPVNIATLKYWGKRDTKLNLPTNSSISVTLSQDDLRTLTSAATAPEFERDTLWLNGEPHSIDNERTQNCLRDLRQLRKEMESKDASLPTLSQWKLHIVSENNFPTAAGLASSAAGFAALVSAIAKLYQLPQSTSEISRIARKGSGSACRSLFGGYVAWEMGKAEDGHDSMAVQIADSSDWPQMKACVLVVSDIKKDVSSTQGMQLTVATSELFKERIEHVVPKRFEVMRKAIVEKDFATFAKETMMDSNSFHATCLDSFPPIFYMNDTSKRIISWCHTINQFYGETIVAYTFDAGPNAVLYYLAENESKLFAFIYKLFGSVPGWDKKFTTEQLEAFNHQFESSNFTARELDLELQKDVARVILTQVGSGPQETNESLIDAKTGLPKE
# Source text: as §5, §6
# [7] = molecular target: T4, mevalonate 3-kinase of SEQ ID NO: 12 (CAC12426.1) (Thermoplasma acidophilum, UniProt Q9HIN1); experiment: as above; format: biochemical; conditions: 10 mM substrate, 30 mM ATP, pH 7.0, 30° C., 24 h, GC-MS versus empty vector control
# T4 construct: His tag (C); made in house; host or cells: E. coli BL21[DE3]
# T4 sequence (Q9HIN1 1-318): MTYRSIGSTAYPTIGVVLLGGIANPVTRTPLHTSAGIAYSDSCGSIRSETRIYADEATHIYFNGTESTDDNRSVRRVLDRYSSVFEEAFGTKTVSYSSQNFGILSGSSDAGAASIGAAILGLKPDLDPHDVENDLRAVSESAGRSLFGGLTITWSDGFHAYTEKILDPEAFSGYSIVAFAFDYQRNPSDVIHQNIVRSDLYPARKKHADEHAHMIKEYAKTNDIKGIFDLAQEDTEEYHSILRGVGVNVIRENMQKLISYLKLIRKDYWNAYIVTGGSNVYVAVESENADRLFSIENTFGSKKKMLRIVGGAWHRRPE
# Source text: as §5, §6
# [8] = tested on: mevalonate diphosphate decarboxylase of SEQ ID NO: 8 (AAK33797.1); experiment: as above; format: biochemical, Streptococcus pyogenes; conditions: 10 mM substrate, 30 mM ATP, pH 7.0, 30° C., 24 h, GC-MS versus empty vector control
# Source text: as §5, §6
# T2 sequence (E1XUJ2 27-397): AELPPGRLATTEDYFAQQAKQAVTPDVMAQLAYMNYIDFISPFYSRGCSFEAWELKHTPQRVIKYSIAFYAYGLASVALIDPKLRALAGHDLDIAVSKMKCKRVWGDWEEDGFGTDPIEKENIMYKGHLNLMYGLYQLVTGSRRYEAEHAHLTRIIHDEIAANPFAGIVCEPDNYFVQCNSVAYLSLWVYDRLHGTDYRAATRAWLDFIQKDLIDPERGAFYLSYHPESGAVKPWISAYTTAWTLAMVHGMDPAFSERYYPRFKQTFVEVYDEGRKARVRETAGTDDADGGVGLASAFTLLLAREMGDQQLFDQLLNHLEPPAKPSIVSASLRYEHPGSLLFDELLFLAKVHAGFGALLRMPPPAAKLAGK
smiles,measurement,setting,value
CC(C)C=CC(=O)SCCNC(=O)CCNC(=O)[C@H](O)C(C)(C)COP(=O)(O)OP(=O)(O)OC[C@H]1O[C@@H](n2cnc3c(N)ncnc32)[C@H](O)[C@@H]1OP(=O)(O)O [4-methyl-pent-2-enoyl-CoA],"acceptance as substrate, hydration direction, inferred from reversibility of the enzyme reaction",[1],accepts
"CC(O)CC(=O)SCCNC(=O)CCNC(=O)[C@H](O)C(C)(C)COP(=O)(O)OP(=O)(O)OC[C@H]1O[C@@H](n2cnc3c(N)ncnc32)[C@H](O)[C@@H]1OP(=O)(O)O (mixture of isomers) [3-hydroxybutanoyl-CoA, reference compound]","acceptance as substrate, reverse (dehydration) direction",[2],accepted
CCC(C)(O)CC(=O)SCCNC(=O)CCNC(=O)[C@H](O)C(C)(C)COP(=O)(O)OP(=O)(O)OC[C@H]1O[C@@H](n2cnc3c(N)ncnc32)[C@H](O)[C@@H]1OP(=O)(O)O (stereo partly drawn) [3-methyl-3-hydroxypentanoyl-CoA],"acceptance as substrate, reverse (dehydration) direction",[2],accepted
CCC(C)=CC(=O)SCCNC(=O)CCNC(=O)[C@H](O)C(C)(C)COP(=O)(O)OP(=O)(O)OC[C@H]1O[C@@H](n2cnc3c(N)ncnc32)[C@H](O)[C@@H]1OP(=O)(O)O [3-methyl-pent-2-enoyl-CoA],"acceptance as substrate, hydration direction, inferred from reversibility of the enzyme reaction",[1],accepts
CC(C)C(O)CC(=O)SCCNC(=O)CCNC(=O)[C@H](O)C(C)(C)COP(=O)(O)OP(=O)(O)OC[C@H]1O[C@@H](n2cnc3c(N)ncnc32)[C@H](O)[C@@H]1OP(=O)(O)O (stereo partly drawn) [4-methyl-3-hydroxypentanoyl-CoA],"acceptance as substrate, reverse (dehydration) direction",[2],accepted
C=C(C)C(C)O (stereo not drawn) [3-methyl-3-buten-2-ol],"acceptance as substrate, isoprene as reaction product",[3],accepted
C=CC(C)(O)CC(=O)O (stereo not drawn) [3-methyl-3-hydroxypent-4-enoate],"acceptance as substrate, isoprene as reaction product",[4],accepted
same,"acceptance as substrate, isoprene as reaction product",[5],accepted
same,"acceptance as substrate, isoprene as reaction product",[6],accepted
same,"acceptance as substrate, isoprene as reaction product",[7],accepted
same,"acceptance as substrate, isoprene as reaction product",[8],accepted
"C/C=C/C(=O)SCCNC(=O)CCNC(=O)[C@H](O)C(C)(C)COP(=O)(O)OP(=O)(O)OC[C@H]1O[C@@H](n2cnc3c(N)ncnc32)[C@H](O)[C@@H]1OP(=O)(O)O [crotonyl-CoA, reference compound]","acceptance as substrate, forward (hydration) direction","[1]; 1 mM substrate, 0.4 μM purified enzyme, 10 mM ammonium acetate pH 8, 30° C., spectrophotometry at 263 nm",accepted
